Each compound was assayed against T1, human transferrin receptor (hTfR) (Homo sapiens, UniProt P02786) (assay: Evaluation of molecular interaction between transferrin receptor (hTfR) and peptide using surface plasmon resonance (SPR)). Conditions: surface plasmon resonance, binding to hTfR; KD class symbol; read-out: SPR (KD value).
T1 construct: made in house
Format: binding
How it was run: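 Binding kinetics of peptides to immobilized recombinant human TfR dimer were measured by SPR at 5–100 nM in a single-cycle format, with KD obtained from curve fitting.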

T1 sequence (P02786 89-760 limits assumed): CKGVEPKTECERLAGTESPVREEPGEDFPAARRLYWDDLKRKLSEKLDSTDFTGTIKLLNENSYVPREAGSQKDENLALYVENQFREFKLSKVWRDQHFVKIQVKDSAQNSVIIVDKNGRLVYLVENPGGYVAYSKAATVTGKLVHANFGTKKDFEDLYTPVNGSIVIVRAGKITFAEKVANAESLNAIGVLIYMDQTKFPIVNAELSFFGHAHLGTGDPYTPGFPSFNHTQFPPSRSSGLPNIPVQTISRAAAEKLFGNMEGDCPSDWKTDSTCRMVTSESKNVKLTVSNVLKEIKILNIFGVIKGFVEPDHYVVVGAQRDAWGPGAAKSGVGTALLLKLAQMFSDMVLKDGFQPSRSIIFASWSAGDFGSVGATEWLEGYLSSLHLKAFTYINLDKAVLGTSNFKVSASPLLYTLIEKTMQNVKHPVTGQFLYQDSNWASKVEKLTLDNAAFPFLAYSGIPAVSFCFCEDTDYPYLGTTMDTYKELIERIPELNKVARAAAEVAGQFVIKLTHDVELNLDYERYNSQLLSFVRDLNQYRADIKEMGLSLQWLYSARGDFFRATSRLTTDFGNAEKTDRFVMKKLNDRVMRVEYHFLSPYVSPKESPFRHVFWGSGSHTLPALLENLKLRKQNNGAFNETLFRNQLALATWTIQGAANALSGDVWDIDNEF

Compound | Kd [nM]
CC[C@H](C)[C@@H]1NC(=O)[C@H](Cc2ccc(O)cc2)NC(=O)[C@H](Cc2ccc(O)cc2)NC(=O)[C@H](CC(N)=O)NC(=O)[C@H](Cc2c[nH]c3ccccc23)N(C)C(=O)[C@H](C(C)C)NC(=O)[C@H](Cc2ccc(F)cc2)N(C)C(=O)[C@H](C(C)C)NC(=O)[C@H](C)NC(=O)CSC[C@@H](C(=O)NCCOCCOCCOCCOCCC(N)=O)NC(=O)[C@H](Cc2ccc(O)cc2)N(C)C(=O)[C@H](Cc2ccccc2)NC(=O)[C@@H](CCCNC(=N)N)NC(=O)[C@H](CCCNC(=N)N)NC(=O)[C@H]([C@@H](C)CC)NC1=O [compound 28] | 1 to 100
CC[C@H](C)[C@@H]1NC(=O)[C@H](Cc2ccc(OC)cc2)NC(=O)[C@H](Cc2ccc(O)cc2)NC(=O)[C@H](CC(N)=O)NC(=O)[C@H](Cc2c[nH]c3ccccc23)N(C)C(=O)[C@H](C(C)C)NC(=O)[C@H](Cc2ccc(F)cc2)N(C)C(=O)[C@H](C(C)C)NC(=O)[C@H](C)NC(=O)CSC[C@@H](C(=O)NCCOCCOCCOCCOCCC(N)=O)NC(=O)[C@H](Cc2ccc(O)cc2)N(C)C(=O)[C@H](Cc2ccccc2)NC(=O)[C@@H](CCCNC(=N)N)NC(=O)[C@H](CCCNC(=N)N)NC(=O)[C@H]([C@@H](C)CC)NC1=O [compound 29] | 1 to 100
CC[C@H](C)[C@@H]1NC(=O)[C@H](Cc2ccc(OC)cc2)NC(=O)[C@H](Cc2ccc(O)cc2)NC(=O)[C@H](CC(N)=O)NC(=O)[C@H](Cc2c[nH]c3ccccc23)N(C)C(=O)[C@H](C(C)C)NC(=O)[C@H](Cc2ccc(F)cc2)N(C)C(=O)[C@H](C(C)C)NC(=O)[C@H](C)NC(=O)CSC[C@@H](C(=O)NCCOCCOCCOCCOCCC(N)=O)NC(=O)[C@H](Cc2ccc(O)cc2)N(C)C(=O)[C@H](Cc2ccccc2)NC(=O)[C@@H](CCCNC(=N)N)NC(=O)[C@H](CCCNC(=N)N)N(C)C(=O)[C@H]([C@@H](C)CC)NC1=O [compound 30] | 1 to 100
CC[C@H](C)[C@@H]1NC(=O)[C@H](Cc2ccc(OC)cc2)NC(=O)[C@H](Cc2ccc(O)cc2)NC(=O)[C@H](CC(N)=O)NC(=O)[C@H](Cc2cn(CC(=O)O)c3ccccc23)NC(=O)[C@H](C(C)C)NC(=O)[C@H](Cc2cccc(Cl)c2)N(C)C(=O)[C@H](C(C)C)NC(=O)[C@H](C)NC(=O)CSC[C@@H](C(=O)NCC(=O)N[C@H](CCC(=O)O)C(=O)N[C@H](CCC(=O)O)C(=O)N[C@H](CCC(=O)O)C(=O)N[C@H](CO)C(=O)N[C@H](CO)C(=O)N[C@@H](CCCCN=[N+]=[N-])C(N)=O)NC(=O)[C@H](Cc2ccc(O)cc2)N(C)C(=O)[C@H](Cc2ccccc2)NC(=O)[C@H](CCCNC(=N)N)NC(=O)[C@H](CCCNC(=N)N)NC(=O)[C@H](CCC(=O)O)NC1=O [compound 39] | < 1

Next, values leading:

Kd [nM] | Compound
< 1 | CC[C@H](C)[C@@H]1NC(=O)[C@H](Cc2ccc(OC)cc2)NC(=O)[C@H](Cc2ccc(O)cc2)NC(=O)[C@H](CC(N)=O)NC(=O)[C@H](Cc2c[nH]c3ccc(Cl)cc23)NC(=O)[C@H](C(C)C)NC(=O)[C@H](Cc2ccccc2)N(C)C(=O)[C@H](C(C)C)NC(=O)[C@H](C)NC(=O)CSC[C@@H](C(=O)NCCOCCOCCOCCOCCC(N)=O)NC(=O)[C@H](Cc2ccc(O)cc2)N(C)C(=O)[C@H](Cc2ccc(O)cc2)NC(=O)[C@H](CCCNC(=N)N)NC(=O)[C@H](CCCNC(=N)N)NC(=O)[C@H]([C@@H](C)CC)NC1=O [compound 37]
< 1 | CC[C@H](C)[C@@H]1NC(=O)[C@H](Cc2ccc(OC)cc2)NC(=O)[C@H](Cc2ccc(O)cc2)NC(=O)[C@H](CC(N)=O)NC(=O)[C@H](Cc2c[nH]c3ccccc23)NC(=O)[C@H](C(C)C)NC(=O)[C@H](Cc2cccc(Cl)c2)N(C)C(=O)[C@H](C(C)C)NC(=O)[C@H](C)NC(=O)CSC[C@@H](C(=O)NCCOCCOCCOCCOCCC(N)=O)NC(=O)[C@H](Cc2ccc(O)cc2)N(C)C(=O)[C@H](Cc2ccc(O)cc2)NC(=O)[C@H](CCCNC(=N)N)NC(=O)[C@H](CCCNC(=N)N)NC(=O)[C@H]([C@@H](C)CC)NC1=O [compound 38]

Reference: patent US20260116920A1, “HUMAN TRANSFERRIN RECEPTOR BINDING PEPTIDE” (PEPTIDREAM INC., priority 2021, published 2026)
